Experimental findings from patent publication US10010572B2, “Composition for musculoskeletal pain” (priority 2015, dated 2018) are described below.

The data set relates to chronic musculoskeletal pain. Briefly: Randomized, double-blind, placebo-controlled clinical study of topical analgesics (St. Lucia), Subjective Pain Intensity Rating (SPIR). An excerpt: Chronic musculoskeletal pain is relatively common in all age groups and may be the result of work-related trauma, sports-related injuries, postural events, various traumas and the natural aging process. Pharmaceutical agents including non-steroidal anti-inflammatory drugs acetaminophen, opioids and other drugs are frequently used to treat such patients. Because of the potential adverse effects associated with most of these drugs, one embodiment of the present invention, a topical analgesic, with coconut oil as a base ingredient and other natural oils, was clinically tested to determine its efficacy in the management of chronic musculoskeletal pain.
One hundred ninety six (196) patients were enrolled in the study. The patients were randomized to the 3 groups using the nQuery Advisor version 7.0 software protocol.
After obtaining permission from the Committee for the Protection of Human Subjects attached to the St. Lucia Pain Institute, the Ministry of Health in St. Lucia and the St. Lucia Medical and Dental Association Ethics Committee, a randomized, double-blind, placebo-controlled study was designed and implemented in the Caribbean island of St. Lucia. St. Lucia was chosen as the study site for a number of reasons: that population is relatively opioid-naive; chronic musculoskeletal pain is quite common, and most patients tend to use and in some cases, prefer to use topical analgesics for musculoskeletal pain management instead of oral or other parenteral medications. Moreover, the Principal Investigator (inventor of the present invention) lives in St. Lucia for part of the year. One hundred and ninety-six (196) patients were enrolled in the study and were subsequently randomized to a pre-determined computerized protocol. […] The Diclofenac ointment was dispensed in a label-less tube.
All patients were initially evaluated by the Principal Investigator and another investigator after triage screening by the Study Coordinator. At that screening, the patients were assessed using the inclusionary and exclusionary criteria. […] Patients were recruited via television, radio and newspaper announcements, and interviews announcing the study. […] This study was supported and funded by three St. Lucian Financial Institutions.
Subjective Pain Intensity Rating (SPIR) was determined on each patient using a scale of 0 (no pain) to 10 (the maximum possible pain, e.g. immersion of the hand in boiling water). That raw score was multiplied by 10 to obtain a percentage score. […] After successful enrollment, patients were randomized to one of the 3 groups. Patients were dispensed with 5 ounces of one of the 3 medications and were instructed to apply the medication twice daily for 2 weeks.
All patients were contacted by the Study Coordinator after 2 weeks and pain score (as described above), satisfaction with the drug, satisfaction with the overall study and the presence of adverse effects were determined. Then, 2 weeks later (4 weeks after study commencement), patients were asked to return to the study office (St. Lucia Pain Institute office) for follow-up clinical evaluation and determination of pain score, adverse effects and related data similar to what was obtained at 2 weeks.

SMILES strings stand for the structures.

On to `O=C(O)Cc1ccccc1Nc1c(Cl)cccc1Cl` [Diclofenac], for which the “Median pain score at 3 months” value (100 point scale, 3 month post-study telephone interview) is 25%. Further, the “Median change in pain from baseline to 3 months (decrease)” value (100 point scale, decrease, not statistically significant among groups) is given as 30%. Where the note is “after 5 days, subsided on discontinuation, reappeared on re-introduction, study discontinued in that patient after 8 days”, the “patients with progressive radicular pain and paresthesiae (major adverse effect)” value was “One”. In addition, the “change in SPIR pain score from baseline to 2 weeks” value (patients with chronic axial musculoskeletal pain, topical twice daily, baseline to 2 weeks, all p<0.0001) was “corresponding decreases in pain scores”. Besides, under “patients with chronic axial musculoskeletal pain, topical twice daily, baseline to 4 weeks, all p<0.0001”, the “change in SPIR pain score from baseline to 4 weeks” value is given as “corresponding decreases in pain scores”. Moreover, the “patients who developed superficial skin rashes” value (receded without therapy when the drug was discontinued) was “Four”.
